This test deals with T1, Lysine-specific demethylase 4C (Homo sapiens, UniProt Q9H3R0).
T1 sequence (Q9H3R0 whole entry): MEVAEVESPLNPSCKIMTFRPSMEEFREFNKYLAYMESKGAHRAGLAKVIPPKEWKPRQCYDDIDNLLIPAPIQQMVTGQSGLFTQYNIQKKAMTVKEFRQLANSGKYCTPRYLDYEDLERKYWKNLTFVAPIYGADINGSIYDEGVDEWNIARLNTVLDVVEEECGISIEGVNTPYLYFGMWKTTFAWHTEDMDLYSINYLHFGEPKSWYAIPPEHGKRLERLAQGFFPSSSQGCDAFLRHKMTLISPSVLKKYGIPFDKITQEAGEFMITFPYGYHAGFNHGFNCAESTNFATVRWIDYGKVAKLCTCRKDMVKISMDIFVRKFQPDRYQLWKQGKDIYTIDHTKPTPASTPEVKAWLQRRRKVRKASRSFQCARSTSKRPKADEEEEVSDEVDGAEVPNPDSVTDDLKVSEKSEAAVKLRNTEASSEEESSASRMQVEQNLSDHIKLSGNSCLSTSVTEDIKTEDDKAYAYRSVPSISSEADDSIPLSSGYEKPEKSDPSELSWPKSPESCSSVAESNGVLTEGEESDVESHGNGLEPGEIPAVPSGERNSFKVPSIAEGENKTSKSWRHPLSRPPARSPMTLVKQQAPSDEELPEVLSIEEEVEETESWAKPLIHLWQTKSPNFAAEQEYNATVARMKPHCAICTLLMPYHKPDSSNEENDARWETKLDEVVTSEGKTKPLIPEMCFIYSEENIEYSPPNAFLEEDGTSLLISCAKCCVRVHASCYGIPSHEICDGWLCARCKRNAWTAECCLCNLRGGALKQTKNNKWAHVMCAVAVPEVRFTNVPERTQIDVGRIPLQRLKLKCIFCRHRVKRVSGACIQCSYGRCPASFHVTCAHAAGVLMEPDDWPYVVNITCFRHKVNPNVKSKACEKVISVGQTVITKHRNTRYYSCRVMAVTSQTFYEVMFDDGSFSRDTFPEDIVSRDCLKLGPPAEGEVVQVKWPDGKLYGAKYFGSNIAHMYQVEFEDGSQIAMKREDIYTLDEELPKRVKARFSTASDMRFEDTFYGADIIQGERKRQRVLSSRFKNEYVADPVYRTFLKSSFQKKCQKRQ
Put plainly: JMJD2C Assay. How it is done: The ability of test compounds to inhibit the activity of JMJD2C was determined in 384-well plate-format under the following reaction conditions: 0.3 nM JMJD2C, 300 nM H3K9me3-biotin labeled peptide (Anaspec cat #64360), 2 μM alpha-ketoglutaric acid in assay buffer of 50 mM HEPES, pH 7.3, 0.005% Brij35, 0.5 mM TCEP, 0.2 mg/ml BSA, 50 μM sodium L-ascorbate, and 2 μM ammonium iron(II) sulfate. Reaction product was determined quantitatively by TR-FRET after the addition of detection reagent Phycolink Streptavidin-allophycocyanin (Prozyme) and Europium-anti-di-methylated histone H3 lysine 9 (H3K9me2) antibody (PerkinElmer) in the presence of 5 mM EDTA in LANCE detection buffer (PerkinElmer) at a final concentration of 50 nM and 1 nM, respectively.The assay reaction was initiated by the following: 2 μl of the mixture of 900 nM H3K9me3-biotin labeled peptide and 6 μM alpha-ketoglutaric acid with 2 μl of 11-point serial diluted inhibitor in 3% DMSO were added to each well of the plate, followed by the addition of 2 μl of 0.9 nM JMJD2C to initiate the reaction. […] Plates were read by EnVisionMultilabel Reader in TR-FRET mode (excitation at 320 nm, emission at 615 nm and 665 nm) after 1 hr incubation at room temperature. A ratio was calculated (665/615) for each well and fitted to determine inhibition constant (IC50).

Molecules are shown by their SMILES.

The term IC50 denotes the concentration needed to halve the response being measured. `COc1ccc(N2CCN(C)CC2)cc1N(C)c1ccc(Oc2nc(O)c3ccncc3n2)cc1C` [US10202381, Example 145]: the IC50 was below 100 nM.

As to `Cc1cc(Oc2nc(O)c3ccncc3n2)ccc1N(C)c1cc(N2CCN(C)CC2)ccc1C` [US10202381, Example 147], the IC50 is below 100 nM.

The values above are taken from BindingDB's records for patent US10202381 (Celgene Quanticel Research Inc, 2019).
